Measured values taken from US20160090351A1, “INHIBITORS OF DEUBIQUITINATING PROTEASES” (BRANDEIS UNIVERSITY, priority 2013, published 2016).
Each block holds one compound with its values, some of them ahead of it.

Tests used:
USP9x = target: T1, USP9x (Homo sapiens, UniProt Q93008); assay: HA-Ub-VS labeling in K562 cell lysates; type: biochemical
T1 construct: endogenous in cells; host or cells: K562 cell lysate
Description: HA-Ub-VS is commonly used to label DUBs in cell lysates. […] A. and B. K562 cell lysates were treated with compound for 40 minutes prior to activity labeling with HA-Ub-VS (1.5 μM) for 20 minutes. Samples were analyzed by SDS-PAGE and immunoblotting with anti-HA antibody. C. […] Values were derived by fitting to the in Prism.

20S proteasome = 20S proteasome (Homo sapiens, UniProt P28074); assay: proteasome activity (purified 20S proteasome; GFP-Ub (G76V) in Cos-1 cells); type: biochemical; settings: 20S proteasome 30 minutes, Suc-Leu-Tyr-AMC 100 μM; Cos-1 GFP-Ub (G76V) 8 hours
Description: A. Purified 20S proteasome was treated with compound for 30 minutes prior to addition of substrate (Suc-Leu-Tyr-AMC, 100 μM). B. Cos-1 cells expressing with GFP-Ub (G76V) were treated with compound for 8 hours, then the level of GFP was measured by flow cytometry.

BaF3.p210 = assay: cytotoxicity in a panel of cell lines, Alamar Blue; type: cell-based, mouse
Description: Cytoxicity was tested against a panel of cell lines: (i) B16/F10, a metastatic mouse melanoma cell line that suppresses the tumor suppressor Gas1 (Growth arrest-specific 1); (ii) BaF3, an immortalized mouse pro-B cell line that depends on IL-3 for growth and proliferation (L-3 stimulates expression of the pro-survival Bc1-2 family member, Mc1-1; and USP9x is the deubiquitinase responsible for stabilizing Mc1-1); (iii) Cos-1, monkey kidney fibroblast immortalized with SV40 T antigen; (iv) BaF3.p210, BaF3 cells expressing Bcr-Abl kinase (p210), the mutant protein that causes chronic myelogenous leukemia, and the target of Gleevec (The expression of Bcr-Abl cause proliferation to become IL-3-independent. These cells have been widely used in the development of Bcr-Abl kinase inhibitors. USP9x stabilizes Bcr-Abl by removing Ub and blocking degradation via autophagy.); (v) HEK293T, human embryonic kidney cell line expressing SV40 T antigen; (vi) HeLa, human cervical adenocarcinoma cell line; (vii) MCF7, human breast cancer cell line; and (viii) NIH3T3, mouse fibroblast cell line. Of these, the only cells dependent on USP9x for survival are BaF3.p210 and BaF3. A. Cells were treated with a single dose of TU50 for 48 h and viable cells were measured using Alamar Blue®. EC50=8±2 μM for BaF3.p210. B. As above, except that cells were treated with TU50 for 72 h.

K562 cells = assay: apoptosis, cell cycle and viability of K562 cells by flow cytometry; type: cell-based, human; settings: annexin V-FITC / propidium iodide, 24 hours (TU50 also 8 hours)
Description: (§1) K562 cells are from a myelogenous leukemia line that expresses Bcr-Abl kinase. A. K562 cells were treated with TU50 for 24 hours after which time the cells were treated with annexin V-FITC and propidium iodide. Cells were then analyzed by flow cytometry. Cells showing only annexin V-FITC were considered apoptotic whereas cells showing both annexin V-FITC and propidium iodide were considered necrotic. N=2. All points show a significant difference to the vehicle (DMSO) with p<0.05. […] All points show a significant difference to vehicle (DMSO) with p<0.02. C. Same as A, but the incubation period was 8 hours. N>2. All points show a significant difference to DMSO with p<0.02. D, K562 cells were treated with TU50 for 4 hours. Samples were analyzed by SDS-PAGE and immunoblotting with anti-Bcr-Abl antibody. E. Quantitation of blot in D. The signal for tubulin was used to normalize the Bcr-Abl signal. N=3.
(§2) FIG. 40 depicts data showing that diphenyl carbonates induce the degradation of Bcr-Abl kinase. A. K562 cells were treated with C17 for 24 h (1 dose) then analyzed for Bcr-Abl expression by western blot with anti-Abl antibody. B. Quantitation of blots in A normalized to actin. C. K562 cells were treated with C17 for 24 h then the amount of cells in G1 and apoptosis were recorded (N=3). D. K562 were treated with C15 for 4 h then analyzed for Bcr-Abl expression using western blot. E. Quantitation of Bcr-Abl from D normalized to tubulin (N=4). F. Same K562 lysates were separately analyzed for K63-linked ubiquitin. G. Quantitation of blots in F (N=4). Differences between all bars is significant p<0.01). H. K562 cells were treated with C15 for 24 h after which time cells were fixed in ethanol, treated with propodium iodide/RNAse then analyzed by FACS. Viability was calculated using forward and side scatter. I. Same experiment as H but red fluorescence was measured to determine DNA content

Bcr-Abl kinase = assay: Bcr-Abl levels in K562 cells by immunoblotting; type: cell-based, human
Description: as §1
(§3) FIG. 34 depicts data showing that diphenylcarbonates cause the accumulation of HMW-Ub and reduce the levels of Bcr-Abl in K562 cells. A. K562 cells were treated with diphenyl carbonates (50 μM) for 2 h and then assayed for the accumulation of K48-linked Ub. B. As in A, but Bcr-Abl was measured by immunoblotting with anti-Abl antibodies. C. K562 cells were treated with C17 (50 μM) in the presence and absence of bortezomib (6 μM) for 4 hours and Bcr-Abl was measured by immunblotting with anti-Abl antibodies. D. Quantitation of blot in C. Significance: DMSO relative to C17 and bortezomib p=0.002; DMSO relative to C17, p=0.03. E. K562 cells were treated with C15 for 4 hours then analyzed for SMAD4 monoubiquitination by western blot. F. Quantitation of blots in A. (N=3). See also FIG. 40.
as §2
(§4) Transfected cells were harvested 1.5 days post transfection. […] Typically clarified lysate was analyzed.

[1] = system: USP9x, USP19, USP7/8, USP28/15; assay: HA-Ub-VS activity profiling in cell lysates, USPs; type: biochemical, human; settings: HEK293T or Cos-1 lysate, compounds numbered as in FIG. 3
Description: (§5) HA-ubiquitin vinylsulfone (HA-Ub-VS) irreversibly labels DUBs by modifying the catalytic cysteine residue Inhibition of the DUB prevents HA-Ub-VS labeling and the band is. […] The interaction with UCHL1/3 is reversible.
(§6) Lysate labeling assay on untransfected cells (1.5 mg/mL) was run with the stated concentration of inhibitor (or 1% DMSO control) for between 19-60 mins. After this time HA-Ub-VS (1.5-0.7 μM) was added and incubated for 19 mins. After this time reaction mixture (9 μL) was removed and quenched in 2× (final concentration) reducing loading buffer. For recovery experiments, a lysate of 6 mg/mL was treated with saturating compound C14 (250 μM) and incubated for 40 mins. Afterward, the lysate was diluted to 0.6 mg/mL (final concentration of inhibitor 25 μM) in lysis buffer (final volume 100 μL), then HA-Ub-VS was added. Aliquots (15 μL) were removed at the stated time (5-119 mins) and immediately quenched in 2× (final concentration) reducing loading buffer. For all HA-Ub-VS experiments samples in loading buffer were heated only to 37° C. prior to loading on a gel. This assay is highly susceptible to concentration of lysate and HA-Ub-VS. Cell experiments were carried out as above with some modifications. For Cos-1 and MCF-7 cells, after trypsinization, media with compound was added to give a final concentration of compound equal to that used in the assay. Cell pellets were lysed on an ice/salt bath with a temperature of −5° C. and lysate was centrifuged for only 5 mins.
(§7) HA-Ub-VS is an irreversible inhibitor of DUBs that is widely used in activity profiling. If the DUB inhibitors react to form a thiocarbonylated enzyme as proposed (FIG. 29B), then HA-Ub-VS labeling will be blocked. Treatment of HEK 293T lysates with HA-Ub-VS produced the characteristic pattern of protein bands at 250, 150-100, 45, 38 and 36 kDa, generally ascribed to USP9x (292 kDa), USP19 (146 kDa), USP7/8 (128 and 127 kDa, respectively), USP28/15 (122 and 112 kDa, respectively), UCH-L5 (38 kDa), UCH-L3 (26 kDa) and UCH-L1 (25 kDa) as depicted in FIG. 31.
(§8) The effect of diphenylcarbonates on HA-Ub-VS labeling was assessed to investigate the selectivity of DUB inhibition. Lysates were preincubated with diphenyl carbonates (75 μM), then treated with HA-Ub-VS (FIG. 31A). […] These C17 and C22-sensitive DUBs are most likely USP9x, USP19, USP7/8 and UCHL5, based on molecular weight (FIGS. 31B and 38). The identity of USP7 was confirmed by immunoblotting (FIG. 38F). […] Similar behavior was observed on Cos-1 cell lysates (FIG. 38B).

UCH-L5, UCH-L3, UCH-L1 = assay: HA-Ub-VS activity profiling in cell lysates, UCH-Ls; type: biochemical, human; settings: HEK293T or Cos-1 lysate, compounds numbered as in FIG. 3
Description: as §5, §6, §7, §8

MCF7 cells = assay: accumulation of K48- and K63-linked ubiquitin in MCF7 cells; type: cell-based, human; settings: 100 μM
Description: FIG. 41 depicts data showing that compound C17 and C15 increase P53 expression and upregulate K48-linked Ub in MCF7 cells. A. MCF7 cells were treated with C17 (50 μM) for 48 h, dosed every 24 h and samples were analyzed for K48-linked ubiquitin. Note that samples were not sonicated, so only soluble HMW-Ub is recovered. B. A similar experiment to A but samples were analyzed for p53. C. Quantitation of blots in B. Each point has a P<0.001 for an increase relative to the DMSO vehicle (N=2). D. MCF7 cells were treated with C15 (100 μM) dosing every 2 h. The accumulation of K48-linked ubiquitin was assayed by SDS-PAGE and by western blot. E. MCF7 cells were treated as in D but the accumulation of K63-linked ubiquitin was assayed. F. Cos-1 cells were treated with C15 for 2 hours then analyzed for K48-linked ubiquitin by western blot. G. Similar experiment to F, but K63-linked ubiquitin was assayed. H. Quantitation of blots in G (N=3).
Similar results were obtained in Cos-1, CHO and HEK293T.
as §4

SMAD4 = SMAD4 monoubiquitination in K562 cells by western blot; type: cell-based, human
Description: as §3, §4

[2] = system: caspases or the proteasome; assay: effect on caspases or proteasome (PARP cleavage), Example 5; type: cell-based; settings: 100 μM
Description: (§9) Cells treated with 4 (100 μM; as defined in FIG. 3) show PARP cleavage that indicates caspases are active. The fluorescence of G76V ubiquitin-GFP fusion protein increases in the presence of inhibitor 4 (as defined in FIG. 3), as expected if degradation […] due to inhibition of DUBs. In contrast, GFP fluorescence […] when the proteasome is inhibited by bortezomib.

[3] = system: G76V ubiquitin-GFP fusion protein; assay: G76V ubiquitin-GFP fusion protein fluorescence, Example 5; type: cell-based; settings: Example 5, FIG. 9 bottom panel
Description: as §9

USP7 = assay: MDM2 and P53 levels in treated cells, Example 6; type: cell-based; settings: compound numbered as in FIG. 3
Description: P53 is a tumor suppressor that is rapidly degraded in tumor cells due to ubiquitination by MDM2. In turn, MDM2 is degraded by the ubiquitin/proteasome system. USP7 removes ubiquitin from MDM2, stabilizing the protein, and thereby causing degradation of P53. […] This behavior is observed when cells are treated with 4 (as defined in FIG. 3). Doxorubicin (Doxo) serves as a positive control.

cathepsin C = cathepsin C (Homo sapiens, UniProt P53634); assay: cathepsin C inhibition; type: biochemical; settings: compounds numbered as in FIG. 5
cathepsin C, sequence (P53634 25-463, species assumed): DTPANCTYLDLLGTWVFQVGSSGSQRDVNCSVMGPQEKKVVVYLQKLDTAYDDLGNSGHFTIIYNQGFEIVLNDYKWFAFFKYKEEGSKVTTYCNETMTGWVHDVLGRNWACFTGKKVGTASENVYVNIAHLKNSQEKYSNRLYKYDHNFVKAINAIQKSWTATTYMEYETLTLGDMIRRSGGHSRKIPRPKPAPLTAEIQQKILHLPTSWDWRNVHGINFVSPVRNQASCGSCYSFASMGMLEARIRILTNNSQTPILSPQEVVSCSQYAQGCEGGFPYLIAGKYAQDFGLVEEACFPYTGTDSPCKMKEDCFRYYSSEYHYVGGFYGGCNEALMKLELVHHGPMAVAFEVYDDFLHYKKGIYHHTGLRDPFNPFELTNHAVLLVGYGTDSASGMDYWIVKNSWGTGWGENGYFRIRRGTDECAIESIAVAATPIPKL

T1 sequence (Q93008 whole entry): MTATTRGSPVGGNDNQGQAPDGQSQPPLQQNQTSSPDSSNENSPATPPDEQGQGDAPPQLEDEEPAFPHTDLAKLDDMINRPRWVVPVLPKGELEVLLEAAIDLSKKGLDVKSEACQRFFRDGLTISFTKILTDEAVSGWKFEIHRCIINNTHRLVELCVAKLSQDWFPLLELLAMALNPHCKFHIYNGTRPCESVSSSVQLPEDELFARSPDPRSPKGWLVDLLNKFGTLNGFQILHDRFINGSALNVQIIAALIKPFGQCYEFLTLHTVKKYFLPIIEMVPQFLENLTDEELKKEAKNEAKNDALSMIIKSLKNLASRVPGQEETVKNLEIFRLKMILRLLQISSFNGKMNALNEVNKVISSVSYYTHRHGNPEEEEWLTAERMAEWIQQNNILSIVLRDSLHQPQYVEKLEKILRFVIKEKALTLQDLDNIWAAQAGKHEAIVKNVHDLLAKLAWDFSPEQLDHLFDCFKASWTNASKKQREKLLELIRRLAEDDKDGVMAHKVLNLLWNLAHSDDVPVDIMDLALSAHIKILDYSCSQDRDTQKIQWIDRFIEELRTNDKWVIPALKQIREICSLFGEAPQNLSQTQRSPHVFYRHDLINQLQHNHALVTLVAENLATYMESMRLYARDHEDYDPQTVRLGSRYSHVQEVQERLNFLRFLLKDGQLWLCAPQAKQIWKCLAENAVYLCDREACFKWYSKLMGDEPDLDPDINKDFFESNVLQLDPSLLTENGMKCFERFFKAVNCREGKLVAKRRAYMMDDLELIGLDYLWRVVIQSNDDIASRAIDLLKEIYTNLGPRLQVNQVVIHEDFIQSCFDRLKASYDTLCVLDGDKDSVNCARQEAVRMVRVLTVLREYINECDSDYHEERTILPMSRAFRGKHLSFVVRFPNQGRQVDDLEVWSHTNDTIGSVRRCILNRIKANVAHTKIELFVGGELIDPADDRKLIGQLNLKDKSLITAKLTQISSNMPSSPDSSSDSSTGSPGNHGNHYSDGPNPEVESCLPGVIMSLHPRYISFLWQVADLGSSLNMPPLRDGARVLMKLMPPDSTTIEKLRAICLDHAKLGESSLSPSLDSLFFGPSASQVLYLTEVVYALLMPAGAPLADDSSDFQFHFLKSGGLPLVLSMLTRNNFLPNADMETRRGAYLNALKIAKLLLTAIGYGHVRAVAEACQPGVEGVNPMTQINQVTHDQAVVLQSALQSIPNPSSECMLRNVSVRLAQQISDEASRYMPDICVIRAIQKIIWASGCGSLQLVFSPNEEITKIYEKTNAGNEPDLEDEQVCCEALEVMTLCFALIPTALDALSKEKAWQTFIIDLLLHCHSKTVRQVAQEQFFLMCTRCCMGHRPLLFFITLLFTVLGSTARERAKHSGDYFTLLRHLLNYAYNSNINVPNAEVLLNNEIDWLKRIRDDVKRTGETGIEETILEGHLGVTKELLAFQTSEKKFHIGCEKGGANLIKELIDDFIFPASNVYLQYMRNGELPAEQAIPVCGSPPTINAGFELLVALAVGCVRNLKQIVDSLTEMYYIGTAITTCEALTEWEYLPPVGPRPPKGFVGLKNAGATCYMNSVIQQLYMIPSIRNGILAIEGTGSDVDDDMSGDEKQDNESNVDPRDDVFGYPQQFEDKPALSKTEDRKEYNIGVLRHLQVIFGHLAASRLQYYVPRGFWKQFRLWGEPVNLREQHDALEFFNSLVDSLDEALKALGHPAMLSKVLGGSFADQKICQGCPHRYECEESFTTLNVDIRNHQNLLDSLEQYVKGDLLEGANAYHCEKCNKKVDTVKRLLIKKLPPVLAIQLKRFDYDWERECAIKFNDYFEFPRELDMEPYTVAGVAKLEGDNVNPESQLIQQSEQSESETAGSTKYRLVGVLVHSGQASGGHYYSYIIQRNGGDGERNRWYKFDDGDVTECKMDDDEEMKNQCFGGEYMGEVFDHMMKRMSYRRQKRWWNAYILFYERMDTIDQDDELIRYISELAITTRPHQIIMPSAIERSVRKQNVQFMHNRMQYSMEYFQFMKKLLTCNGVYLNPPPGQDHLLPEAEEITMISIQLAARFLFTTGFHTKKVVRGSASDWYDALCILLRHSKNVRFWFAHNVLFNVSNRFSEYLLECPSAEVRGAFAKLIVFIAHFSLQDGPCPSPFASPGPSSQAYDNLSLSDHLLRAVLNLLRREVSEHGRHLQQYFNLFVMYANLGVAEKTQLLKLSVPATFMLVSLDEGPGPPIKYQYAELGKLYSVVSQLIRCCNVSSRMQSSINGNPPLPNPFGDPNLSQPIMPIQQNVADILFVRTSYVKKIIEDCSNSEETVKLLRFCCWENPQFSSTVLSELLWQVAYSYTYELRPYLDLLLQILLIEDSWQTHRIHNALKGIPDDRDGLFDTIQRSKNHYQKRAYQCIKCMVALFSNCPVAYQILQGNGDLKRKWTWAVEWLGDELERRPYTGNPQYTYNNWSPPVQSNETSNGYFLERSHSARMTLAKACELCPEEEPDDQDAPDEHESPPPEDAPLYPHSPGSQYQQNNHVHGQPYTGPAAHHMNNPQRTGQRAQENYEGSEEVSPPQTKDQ

- selectivity of DUB inhibition (USP9x; HA-Ub-VS labeling): selectively inhibits USP9x
- EC50 (USP9x; compound 40 minutes, then HA-Ub-VS (1.5 μM) 20 minutes): 3 ± 3 µM
- effect on proteasome activity (20S proteasome): no effect on proteasome activity
Compound: CC(C)(C)OC(=O)NCc1cccc(N=C=S)c1 [TU50]
- EC50 (BaF3.p210; BaF3.p210, single dose, 48 h, Alamar Blue, read-out: EC50, viable cells): 8 ± 2 µM
- selectivity of proliferation inhibition over cell panel (BaF3.p210; panel of 8 cell lines, 48 h and 72 h): selectively inhibits proliferation of cells that depend on USP9x
- apoptosis of K562 cells (K562 cells): induce apoptosis of K562 cells
- Bcr-Abl kinase level (Bcr-Abl kinase; TU50 4 hours): cause degradation of Bcr-Abl kinase

Compound: Cl.NCc1ccc(OC(=O)Oc2ccc(Br)cc2)cc1 [compound 4]
- HA-Ub-VS binding to USP9x and USP7 [1]: prevents binding of HA-Ub-VS to USP9x (290 kDa) and USP7 (150 kDa) selectively
- inhibition of UCHL1/3 (UCH-L5, UCH-L3, UCH-L1): At higher concentrations UCHL1/3 (37 kDa) are inhibited
- BCR/Abl level (Bcr-Abl kinase; compound numbered as in FIG. 3): decrease in BCR/Abl
- K48- and K63-linked ubiquitin (MCF7 cells): elevated K48- and K63-linked ubiquitin
- SMAD4 monoubiquitination (SMAD4): increase in SMAD4 monoubiquitination
- inhibition of caspases or the proteasome [2]: does not inhibit caspases or the proteasome
- GFP fluorescence of G76V ubiquitin-GFP [3]: increases
- MDM2 and P53 levels (USP7): degradation of MDM2 and the stabilization of P53

- inhibition of cathepsin C (cathepsin C): inhibits cathepsin C
Compound: CC(C)(C)OC(=O)NCc1ccc(OC(=O)Oc2ccccc2)cc1 [compound 14]
